What follows are compounds tested on uptake of 14C-cholesterol by the liver (cholesterol absorption) (assay: Cholesterol absorption test: uptake of 14C-cholesterol by the liver after peroral test meal). Conditions: dose at which uptake of 14C-cholesterol by the liver was halved (50%) vs control group; test substance given perorally immediately prior to test meal; mouse.
Format: in vivo, NMRI mice
Excerpt: Effect of the Compounds of the Invention on Cholesterol Absorption and ^3H-taurocholic Acid Excretion Using Fecal Excrement of Mice, Rats or Hamsters
NMRI mice, Wistar rats, or Golden Syrian hamsters (in groups of n=4-6) were kept in metabolic cages, where they were fed with a standard diet (Altromin, Lage (Lippe)). The afternoon prior to the administration of the radioactive tracers (^14C-cholesterol), the feed was removed and the animals were adapted to grates.
Additionally, the animals were labeled s.c. with ^3H-TCA (taurocholic acid) (for example 1 μCi/mouse up to 5 μCi/rat) 24 hours prior to the peroral administration of the test meal (^14C-cholesterol in Intralipid® 20, Pharmacia-Upjohn).
Cholesterol absorption test: 0.25 ml/mouse Intralipid® 20 (Pharmacia-Upjohn) ((spiked with 0.25 μCi of ^14C-cholesterol in 0.1 mg of cholesterol) was administered perorally by gavage.
Test substances were prepared separately in 0.5% methylcellulose (Sigma)/5% Solutol (BASF, Ludwigshafen) or a suitable vehicle.
The administration volume of the test substance was 0.5 ml/mouse. The test substance was administered immediately prior to the test meal (Intralipid labeled with ^14C-cholesterol) (cholesterol absorption test).
The feces were collected over a period of 24 h: fecal elimination of ^14C-cholesterol and ^3H-taurocholic acid (TCA) was determined after 24 hours.
The livers were removed and homogenized, and aliquots were incinerated in an oximate (Model 307, Packard) to determine the amount of ^14C-cholesterol which had been taken up/absorbed.
The amount of ^14C-cholesterol taken up by the liver was based on the administered dose. The ED50 values were interpolated from a dose-effect curve as the dose at which the uptake of ^14C-cholesterol by the liver was halved (50%), based on a control group.

| Structure (SMILES) | ED50 (liver) [mg/mouse] |
| --- | --- |
| N=C(N)c1ccc(C2C(CCC(O)c3ccc(F)cc3)C(=O)N2c2ccc(F)cc2)cc1 (centres unmarked) [II, 4-{1-(4-Fluorophenyl)-3-[3-(4-fluorophenyl)-3-hydroxypropyl]-4-oxoazetidin-2-yl}benzamidine] | 0.1 |
| O=C(CCCCCCCCCCC[N+]12CCN(CC1)CC2)NCc1ccc(C2C(CCC(O)c3ccc(F)cc3)C(=O)N2c2ccc(F)cc2)cc1.O=C([O-])C(F)(F)F (centres unmarked) [IX, 1-[11-(4-{1-(4-Fluorophenyl)-3-[3-(4-fluorophenyl)-3-hydroxypropyl]-4-oxoazetidin-2-yl}benzylcarbamoyl)undecyl]-4-aza-1-azoniabicyclo[2.2.2]octane trifluoroacetate] | 0.1 |
| O=C(CCCCC[N+]12CCN(CC1)CC2)NCc1ccc(C2C(CCC(O)c3ccc(F)cc3)C(=O)N2c2ccc(F)cc2)cc1.O=C([O-])C(F)(F)F (centres unmarked) [VII] | 0.1 |
| O=C(CCCCCCCCCCC[N+]12CCN(CC1)CC2)NCc1ccc(N2C(=O)C(CCC(O)c3ccccc3)C2c2ccccc2)cc1.O=C([O-])C(F)(F)F (centres unmarked) [X, 1-[11-{4-[3-(3-Hydroxy-3-phenylpropyl)-2-oxo-4-phenylazetidin-1-yl]benzylcarbamoyl}undecyl)-4-aza-1-azoniabicyclo[2.2.2]octane trifluoroacetate] | <1.0 |
| COc1ccc(C2C(CCC(O)c3ccc(F)cc3)C(=O)N2c2ccc(CNC(=O)CCCCCCCCCCC[N+]34CCN(CC3)CC4)cc2)cc1.O=C([O-])C(F)(F)F (centres unmarked) [XI, 1-[11-{4-[3-[3-(4-Fluorophenyl)-3-hydroxypropyl]-2-(4-methoxyphenyl)-4-oxoazetidin-1-yl]benzylcarbamoyl}undecyl)-4-aza-1-azoniabicyclo[2.2.2]octane trifluoroacetate] | 0.3 |
